Reference: patent publication US5491169A, “Amino acid derivatives and their therapeutical applications” (priority 1989, dated 1996)
pIC50: −log10 of the molar value.

How the values were obtained:
Hot plate test, i.p. = type: in vivo; conditions: mice
Method: (§1) 1) Hot .plate test: This involves the licking and jumping reflex of the mouse on a plate heated to 55° C., according to the method of Jacob et al (Arch Int. Pharmacodyn. 122 287, 1959; 1961).
1.2 Administered i.p. in mice, the test compounds display a characteristic effect on the times of restraint of jumping and of licking. These effects are antagonized by naloxone (0.5 mg/kg).

[1] = Tail flick test (withdrawal of the tail), i.v.; type: in vivo; conditions: rats, 10 mg/kg
Method: 3) Test of withdrawal of the tail in rats: (tail flick test): administered i.v. in rats, the compounds according to the invention produce a significant extension of the time of withdrawal of the tail. These effects are antagonized by naloxone (0.5 mg/kg s.c.).
The results are expressed as a % analgesia for the same dose (10 mg/kg) of all the compounds tested.

Hot plate test, i.v. = type: in vivo; conditions: Mus musculus, iv, mice, hot plate 55° C., Table III 50% analgesia
Method: as §1
1.1. Administered i.v. (100 μl in tail vein) in mice, the compounds tested display a characteristic effect both on the latency time of jumping and on latency time of licking. These effects are antagonized by naloxone (0.5 mg/kg s.c.).
The results are expressed in Table III as a % analgesia. The percentage analgesia is expressed for each dose of compound tested by the following formula: [formula]

[2] = molecular target: T1, purified rabbit kidney neutral endopeptidase (Oryctolagus cuniculus, UniProt P08049); assay: In vitro inhibitory potency against neutral endopeptidase; type: biochemical; conditions: purified rabbit kidney enzyme, (3H)-D-Ala2-Leu5-enkephalin, 25° C., pH 7.4, DTT 100 equivalents
T1 construct: from tissue; host or cells: rabbit kidney (purified enzyme)
T1 sequence (P08049 1-750): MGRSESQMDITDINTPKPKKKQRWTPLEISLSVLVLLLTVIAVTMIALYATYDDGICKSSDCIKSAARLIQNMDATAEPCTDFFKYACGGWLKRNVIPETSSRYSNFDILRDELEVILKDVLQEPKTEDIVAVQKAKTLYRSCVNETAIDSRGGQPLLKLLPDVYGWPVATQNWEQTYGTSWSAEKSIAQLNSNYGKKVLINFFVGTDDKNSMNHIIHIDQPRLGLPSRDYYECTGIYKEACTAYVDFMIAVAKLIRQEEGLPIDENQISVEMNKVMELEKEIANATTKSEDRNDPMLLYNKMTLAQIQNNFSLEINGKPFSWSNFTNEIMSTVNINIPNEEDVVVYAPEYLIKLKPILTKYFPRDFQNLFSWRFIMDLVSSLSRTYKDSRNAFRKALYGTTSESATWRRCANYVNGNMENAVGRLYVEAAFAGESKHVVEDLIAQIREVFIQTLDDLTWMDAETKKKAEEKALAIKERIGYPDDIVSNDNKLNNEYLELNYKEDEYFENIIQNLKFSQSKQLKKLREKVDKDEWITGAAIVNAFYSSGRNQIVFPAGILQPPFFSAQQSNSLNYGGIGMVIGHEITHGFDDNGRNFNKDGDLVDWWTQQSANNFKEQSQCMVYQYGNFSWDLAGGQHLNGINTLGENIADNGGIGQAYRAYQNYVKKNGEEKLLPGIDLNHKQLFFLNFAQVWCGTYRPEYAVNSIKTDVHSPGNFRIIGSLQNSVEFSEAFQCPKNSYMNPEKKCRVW
Method: (§2) The biological activity relates to the inhibition of purified aminopeptidase N and of purified neutral endopeptidase.
(§3) 1) In vitro inhibition of enkephalinase activities.
a) Inhibitory potency against neutral endopeptidase
The inhibitory power is determined on purified rabbit kidney neutral endopeptidase following the protocol described in the literature (Blumberg et al. Life Sci. (1981) 28, 301). After a preincubation for 15 minutes at 25° C., an aliquot of proteins is incubated for 20 minutes at 25° C. in the presence of 20 nmol of (^3 H)-D-Ala^2 -Leu^5 -enkephalin and the test compound in solution in Tris-HCl buffer (pH 7.4) in the presence of dithiothreitol DTT (100 equivalents relative to the inhibitor). The reaction is stopped by adding 0.2 N HCl. The tritiated metabolite (^3 H)-Tyr-D-Ala-Gly is separated from the D-Ala^2 -Leu^5 -enkephalin by chromatography on a Porapak column, and the quantity formed measured using a liquid scintillation counter.
The activity of the different compounds is expressed as 50% inhibitory concentrations (IC50), and the results are summarized in Table II.

cerebral NEP = assay: In vivo inhibition of cerebral NEP; conditions: mice, i.v.
Method: 2) "In vivo" inhibition of cerebral NEP
The enzymatic activity of cerebral NEP is compared in mice untreated or treated with a given dose of compound (approximately 2.5 mg/kg injected intravenously. The animals are sacrificed at variable times after injection of the inhibitor, and the NEP activity is determined in the brain by measuring the degradation of (^3 H)-D-Ala^2 -Leu^5 -enkephalin.
For the final compound of Example 1, injected at a dose of 2.7 μmol/kg (47.6 μg in 100 μl), the following results are obtained: […]

[3] = molecular target: T2, purified porcine kidney aminopeptidase N (Sus scrofa, UniProt P15145); assay: In vitro inhibitory potency against aminopeptidase N; type: biochemical; conditions: purified porcine kidney enzyme, (3H)-Leu5-enkephalin, DTT
T2 construct: purchased Boehringer, France; host or cells: porcine kidney
T2 sequence (P15145 1-963): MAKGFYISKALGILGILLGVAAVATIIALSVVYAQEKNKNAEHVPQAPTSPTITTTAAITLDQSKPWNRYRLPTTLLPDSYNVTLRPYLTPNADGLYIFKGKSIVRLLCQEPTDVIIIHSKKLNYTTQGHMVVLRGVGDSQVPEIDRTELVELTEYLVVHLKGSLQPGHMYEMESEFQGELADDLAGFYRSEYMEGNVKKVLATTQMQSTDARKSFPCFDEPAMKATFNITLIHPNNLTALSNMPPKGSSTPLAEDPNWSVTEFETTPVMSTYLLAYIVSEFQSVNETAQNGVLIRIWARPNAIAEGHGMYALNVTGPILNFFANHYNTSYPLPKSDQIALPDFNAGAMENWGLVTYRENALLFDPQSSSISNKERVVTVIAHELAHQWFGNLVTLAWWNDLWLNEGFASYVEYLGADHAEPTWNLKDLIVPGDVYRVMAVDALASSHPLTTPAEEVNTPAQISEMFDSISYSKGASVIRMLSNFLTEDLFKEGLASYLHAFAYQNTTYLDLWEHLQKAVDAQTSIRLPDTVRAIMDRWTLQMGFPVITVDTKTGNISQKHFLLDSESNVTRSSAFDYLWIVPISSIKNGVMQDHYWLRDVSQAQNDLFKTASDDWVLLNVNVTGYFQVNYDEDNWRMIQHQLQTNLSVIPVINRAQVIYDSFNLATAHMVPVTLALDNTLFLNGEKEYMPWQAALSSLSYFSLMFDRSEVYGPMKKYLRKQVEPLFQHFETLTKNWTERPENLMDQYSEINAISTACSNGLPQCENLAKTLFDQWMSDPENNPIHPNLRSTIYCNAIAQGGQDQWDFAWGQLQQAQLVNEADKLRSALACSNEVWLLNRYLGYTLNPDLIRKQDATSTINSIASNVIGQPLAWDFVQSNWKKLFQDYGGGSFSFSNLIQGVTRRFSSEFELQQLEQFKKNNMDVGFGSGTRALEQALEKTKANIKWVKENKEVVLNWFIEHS
Method: as §2, §3
b) Inhibitory potency against aminopeptidase N
The inhibitory power is measured on purified porcine kidney aminopeptidase (Boehringer, France). The assay is performed in a manner identical to the above, using (^3 H)-Leu^5 -enkephalin as a substrate. The metabolite formed, (^3 H)-Tyr, is separated by chromatography on a Porapak column, and the quantity formed measured using a liquid scintillation counter.

[4] = Test on abdominal cramps induced by phenylbenzoquinone, i.v.; type: in vivo
Method: 2) Test on abdominal cramps
(Hendershot and Forsaith. J. Pharmacol. (1975), 125, 237): This test measures the number of cramps induced by i.p. injection of 100 μl of a 0.02% solution of phenylbenzoquinone. The number of cramps is counted during 10 minutes, 10 minutes after the injection. Administered i.v., the compounds decrease the number of cramps.

[5] = Tolerance after long-term administration, rats (% analgesia); type: in vivo; conditions: rat, s.c. four times per 24 h, compound 8 10 mg/kg, morphine 2 mg/kg, compound 7 dose not given
Method: (§4) e) Study of the tolerance and addiction effects induced by long-term administration of the compound of Example 8:
(§5) 1) The compound 8 is administered s.c. four times per 24 hours at a dose of 5 mg/kg for 6 days to mice and at 10 mg/kg to rats.
(§6) Morphine (hydrochloride) is administered under the same conditions (0.5 mg/kg in mice, 2 mg/kg in rats). The control animals receive only the vehicle.

[6] = Tolerance after long-term administration, mice (% analgesia); type: in vivo; conditions: mouse, s.c. four times per 24 h, compound 8 5 mg/kg, morphine 0.5 mg/kg
Method: as §4, §5, §6

| Compound | ED50 (Hot plate test, i.v.) | pIC50 [2] | pIC50 [3] | other results |
| --- | --- | --- | --- | --- |
| CC(C)CC(N)CSSCC(Cc1ccccc1)C(=O)NCC(=O)OCc1ccccc1 (stereo not shown) [Example 1] | 4 mg/kg | 8.70 | 8.30 | dose in i.p. hot plate table (Hot plate test, i.p.): 10 mg/kg; % analgesia (tail flick) [1]: 20%; % inhibition cerebral NEP (cerebral NEP; 2.7 μmol/kg (Example 7: same conditions), 60'): 68 ± 4%; % inhibition cerebral NEP (cerebral NEP; 2.7 μmol/kg (Example 7: same conditions), 120'): 63 ± 2%; % inhibition cerebral NEP (cerebral NEP; 2.7 μmol/kg (Example 7: same conditions), 180'): 42 ± 16%; % inhibition cerebral NEP (cerebral NEP; 2.7 μmol/kg, 15' (n = 4)): 96 ± 9%; % analgesia (abdominal cramps) ([4]; 1 mg/kg): 24.6% ± 8; % analgesia (abdominal cramps) ([4]; 3 mg/kg): 46.9% ± 7.9; % analgesia (abdominal cramps) ([4]; 9 mg/kg): 73.9% ± 8.2 |
| CC(C)CC(N)CSSCC(Cc1ccccc1)C(=O)NC(C)C(=O)OCc1ccccc1 (stereo not shown) [Example 2] |  | 8.60 | 8.30 |  |
| CC(C)CC(N)CSSCC(Cc1ccccc1)C(=O)NC(Cc1ccccc1)C(=O)OCc1ccccc1 (stereo not shown) [Example 3] |  | 8.92 | 8.30 |  |
| NC(CSSCC(Cc1ccccc1)C(=O)NCC(=O)OCc1ccccc1)Cc1ccccc1 (stereo not shown) [Example 4] |  | 8.70 | 8.10 |  |
| CSCCC(N)CSSCC(Cc1ccccc1)C(=O)NC(C)C(=O)OCc1ccccc1 (stereo not shown) [Example 6] |  | 8.92 | 8.70 |  |
| CC(NC(=O)C(CC[S+](C)[O-])CSSCC(N)CC[S+](C)[O-])C(=O)OCc1ccccc1 (stereo not shown) [Example 22] | 4.5 mg/kg | 8.15 | 8.70 | dose in i.p. hot plate table (Hot plate test, i.p.): 6 mg/kg |
| C[S+]([O-])CCC(N)CSSCC(Cc1ccccc1)C(=O)NC1CCCCC1C(=O)OCc1ccccc1 (stereo not shown) [Example 26] | 8 mg/kg | 8.30 | 8.70 |  |
| C[S+]([O-])CCC(N)CSSCC(CC[S+](C)[O-])C(=O)NC(CC(=O)OCc1ccccc1)c1ccccc1 (stereo not shown) [Example 28] | 4 mg/kg | 8.52 | 8.70 |  |
| C[S+]([O-])CCC(N)CSSCC(CC[S+](C)[O-])C(=O)NC1CCCCC1C(=O)OCc1ccccc1 (stereo not shown) [Example 32] | 2 mg/kg | 8.40 | 8.70 | dose in i.p. hot plate table (Hot plate test, i.p.): 5.5 mg/kg; % analgesia (tail flick) [1]: 36% |
| CC(C)CC(CSSCC(N)CC[S+](C)[O-])C(=O)NN1CCOCC1 (stereo not shown) [Example 33] |  | 8.30 | 8.70 |  |
| CN1CC[C@]23c4c5ccc(O)c4O[C@H]2[C@@H](O)C=C[C@H]3[C@H]1C5 [morphine, reference compound] |  |  |  | % analgesia relative to the controls ([5]; day 0): 70 ± 12%; % analgesia relative to the controls ([5]; day 1): 20 ± 3%; % analgesia relative to the controls ([5]; day 6): 0%; % analgesia relative to the controls ([6]; day 0): 100 ± 10%; % analgesia relative to the controls ([6]; day 1): 60 ± 10%; % analgesia relative to the controls ([6]; day 6): 0% |
